Experimental data taken from PMC5750217 (Nature Communications, 2018).
Substitutions are numbered along the chain they refer to. In names and notes the source's numbering stands. Several values for one entry are separate records, joined by “and”; a condition that tells them apart may be missing. Identical values can stand only once. Like-named read-outs stand apart in the source and are kept apart here.

Legend:
GltPh-G396S/R397C = target: T1, GltPh-G396S/R397C (Pyrococcus horikoshii, UniProt O59010, G396S/R397C); test: biochemical; assay type: biochemical; settings: for Reduction of L-[3H]serine transport by unlabelled competitor (in words): GltPh-R397C/G396S, 10 µM L-[3H]serine, 100-fold excess unlabelled amino acid
T1 construct: hexa-His (N, cleaved yes); made in house; host or cells: Escherichia coli Top10 (pBAD)
Description: (§1) Mutant and wild-type GltPh with an amino-terminal hexa-His tag were expressed in Escherichia coli Top10 cells (Invitrogen), which were grown in Luria broth medium at 37 °C. Ampicillin was added to a final concentration of 100 μg per ml. To induce expression of GltPh, 0.1% L-arabinose was added when cells reached an optical density of 0.6 at 660 nm, and cells were harvested 4 h post induction. Membranes were isolated, and then solubilised with n-dodecyl-β-D-maltopyranoside (C12M, Anatrace). Histidine containing proteins were purified using Ni^2+−nitrilotriacetic acid resin (Qiagen). The histidine tag was subsequently removed from GltPh by digestion with thrombin (10 U per mg protein) and the protein further purified on a Superdex 200 size exclusion column, where the detergent was exchanged to n-decyl-β-D-maltopyranoside (C10M, Anatrace).
(§2) Pure protein was reconstituted into liposomes composed of 75% E. coli Polar Lipid Extract and 25% 1-palmitoyl-2-oleoyl-sn-glycero-3 ^−phopshocholine (Avanti Polar Lipids). Lipids were mixed, dried under nitrogen and resuspended in internal buffer (100 mM KCl, 20 mM HEPES-Tris pH 7.5) using brief sonication (Laboratory Supplies Co.). The lipid suspension was frozen in liquid nitrogen and thawed at room temperature several times. Liposomes were formed by extrusion through 400 nm polycarbonate membranes (Avanti Polar Lipids) and were treated with Triton X-100 at a 0.5:1 (w/w) detergent to lipid ratio prior to the addition of protein at 0.25 μg protein per mg lipid. The protein/lipid mixture was left at room temperature for 30 min before detergent was removed using SM2 Biobeads (BioRad). The mixture was then incubated with gentle agitation, with four consecutive batches of Biobeads (80 mg per ml). Proteoliposomes were concentrated by centrifugation at 150,000 g for 30 min, resuspended at 100 mg lipid per ml and either used immediately or flash-frozen in liquid nitrogen and stored at −80 °C.
(§3) Mutant and wild-type GltPh-mediated transport of radiolabelled substrate was assayed by diluting proteoliposomes (100 mg lipid per ml) 133-fold into uptake buffer (100 mM NaCl, 20 mM HEPES-Tris pH 7.5, 1 μM valinomycin, 100 nM–1 µM L-[^3H]substrate) pre-warmed to 30 °C. At each time point, a 200 µl aliquot was removed and diluted 10-fold into ice-cold quench buffer (100 mM LiCl, 20 mM HEPES-Tris pH 7.5), followed by immediate filtration over nitrocellulose filters (0.22 μm pore size, Millipore). The filters were washed with ice-cold quench buffer and assayed for radioactivity using a Trilux beta counter (PerkinElmer). To establish substrate concentration–response curves, extraliposomal L-[^3H]substrate was varied between 500 nM and 100 µM, maintaining NaCl concentrations at 300 mM. For inhibitor concentration–response curves, for wild-type GltPh 100 nM L-[^3H]aspartate, and for mutant GltPh 1 µM L-[^3H]serine, was co-applied with varying inhibitor concentrations. Background levels of uptake were measured by diluting proteoliposomes into internal buffer (100 mM KCl, 20 mM HEPES-Tris pH 7.5) containing 1 µM of valinomycin and the indicated concentrations of L-[^3H]substrate.

ASCTs = test system: ASCTs; set-up: method as in PMID 9463476; settings: quoted in discussion; cited from earlier work
wild-type GltPh [1] = target: T2, wild-type GltPh (Pyrococcus horikoshii, UniProt O59010); test: Proteoliposome transport assay, wild-type GltPh; assay type: biochemical
T2 construct: hexa-His (N, cleaved yes); made in house; host or cells: Escherichia coli Top10 (pBAD)
T2 sequence (O59010 1-425): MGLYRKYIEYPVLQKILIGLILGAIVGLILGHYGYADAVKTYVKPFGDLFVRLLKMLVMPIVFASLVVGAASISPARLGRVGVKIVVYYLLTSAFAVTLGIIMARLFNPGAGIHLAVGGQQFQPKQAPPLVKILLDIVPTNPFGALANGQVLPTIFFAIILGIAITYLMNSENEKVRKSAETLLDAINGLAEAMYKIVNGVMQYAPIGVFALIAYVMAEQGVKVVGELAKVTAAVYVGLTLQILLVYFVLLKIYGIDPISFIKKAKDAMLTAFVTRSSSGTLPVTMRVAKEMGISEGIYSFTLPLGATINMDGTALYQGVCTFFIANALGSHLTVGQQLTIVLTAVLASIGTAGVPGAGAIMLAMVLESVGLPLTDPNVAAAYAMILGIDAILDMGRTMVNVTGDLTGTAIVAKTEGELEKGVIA
Description: as §1, §2, §3

GltPh-R397C [2] = target: T3, GltPh-R397C (Pyrococcus horikoshii, UniProt O59010, R397C); test: biochemical
T3 construct: hexa-His (N, cleaved yes); made in house; host or cells: Escherichia coli Top10 (pBAD)
Description: as §1, §2, §3
Supplementary Figure 6. GltPh‐R397C, ASCT1 and ASCT2 are functional cysteine transporters. (a) Purified GltPh‐R397C was reconstituted into liposomes and 10µM 35S‐cysteine transport was measured over 10 minutes alone or in the presence of 1 mM dithiothreitol (DTT). Background levels of uptake were measured by diluting proteoliposomes into internal buffer (100 mM KCl, 20 mM HEPES‐Tris pH 7.5) containing 1 µM of valinomycin and the 10µM 35S‐cysteine. […]
(c) Neutral amino acid exchange in GltPh‐R397C. Counterflow experiments in which Na+ and amino acid loaded liposomes were used to detect the transport of a range of unlabelled neutral amino acids by exchanging with external 3H‐serine. Counterflow assays were performed using liposomes containing 200mM NaCl, 20 mM HEPES/Tris pH 7.5, and 1 mM of unlabelled amino acid as indicated. […]

GltPh-R397C [3] = target: T3, GltPh-R397C; test: biochemical; assay type: binding
Description: Fluorescence-based binding assays were performed by titrating purified protein (50 μg per ml) in 20 mM HEPES/Tris, pH 7.4, 200 mM choline chloride, 0.4 mM n-dodecyl^−β-D-maltopyranoside, 200 nM styryl fluorescent dye RH421 (Invitrogen, Inc., Grand Island, NY) with NaCl, L-ser, L-cys or benzylcysteine at 25 °C[51]. The RH421 dye was excited at 532 nm, and the fluorescence was collected at 628 nm using a QuantaMaster (Photon International Technology, Inc., Edison, NJ). Fluorescence emissions were measured after at least 10 min equilibration to ensure a stabilised signal. The data were analysed using GraphPad Prism version 6.0 for Mac (GraphPad Software, La Jolla California USA). Fractional fluorescence changes were normalised to maximal fluorescence changes, then plotted as a function of ligand concentration and fitted to the Hill equation. All the experiments were performed at least in triplicate.
Analysis of ligand binding data. The voltage sensitive amphipathic dye RH421 reports on Na+ binding to purified GltPh protein in detergent3. RH421 was used to follow Na+ binding to GltPh‐R397C protein either alone or in reactions coupled to binding of amino acids. […]
Coupled ions and amino acid binding was probed by titrating amino acids to the GltPh‐R397C protein in the presence of 10 – 100 mM Na+ ions. The obtained isotherms were analyzed to estimate an apparent number of Na+ ions coupled to binding of the amino acids.
Raw data were first normalized by the initial fluorescence of RH421 and plotted as fraction of fluorescence change (Supplementary […]
total amount of dye and detergent in the assay buffer.
To take into account significant amino acid‐independent Na+ binding, the sets of binding isotherms obtained at variable Na+ concentrations were fitted globally to a simplified binding equation: […]
KD,a is the combined dissociation constant for coupled Na+ and ligand binding and n is the apparent number of coupled ions. Fraction of the protein bound to either Na+ ions alone or to the ions and the […]
Fraction of the protein already bound to Na+ ions before ligand addition is: […]
Fractional fluorescence change Y is fitted to an equation: […]
where Y0 and ∆Y are, respectively, baseline and the signal difference between fully bound and apo […]
KD,a and n were fitted globally for each ligand. Y0 and ∆Y were adjusted for each isotherm independently. […]
individual isotherm to a standard Hill equation, plotted the apparent dissociation constants as functions of Na+ concentrations and compared the values to those predicted using the parameters from the global fits (Supplementary Figure 8).

glutamate transporters = test system: glutamate transporters; set-up: method as in PMID 9463476; settings: quoted in discussion; cited from earlier work
wild-type GltPh [4] = target: T2, wild-type GltPh; settings: published values, cited from earlier work
GltPh-R397C [5] = target: T3, GltPh-R397C; assay type: biochemical; settings: 100 nM L-[3H]aspartate, 1 µM L-[3H]glutamine, 10 µM 35S-cysteine ± 1 mM DTT, Na+ gradient
[6] = target: the molecule itself; test: crystal structure; hanging-drop vapour diffusion at 4 °C, protein ~7 mg per ml in n-decyl-maltopyranoside, 15-21% PEG1000, 0.1 M LiSO4, 0.05 M citric acid, 0.05 M Na2HPO4; space group P61; refined with threefold NCS restraints; with L-aspartate (wild type) or 5 mM L-cysteine, L-serine or benzylcysteine (R397C)
[7] = GltPh-G396S/R397C, 1 µM L-[3H]serine, read-out: IC50 for inhibition of L-[3H]serine transport

T1 sequence (O59010 whole entry G396S/R397C): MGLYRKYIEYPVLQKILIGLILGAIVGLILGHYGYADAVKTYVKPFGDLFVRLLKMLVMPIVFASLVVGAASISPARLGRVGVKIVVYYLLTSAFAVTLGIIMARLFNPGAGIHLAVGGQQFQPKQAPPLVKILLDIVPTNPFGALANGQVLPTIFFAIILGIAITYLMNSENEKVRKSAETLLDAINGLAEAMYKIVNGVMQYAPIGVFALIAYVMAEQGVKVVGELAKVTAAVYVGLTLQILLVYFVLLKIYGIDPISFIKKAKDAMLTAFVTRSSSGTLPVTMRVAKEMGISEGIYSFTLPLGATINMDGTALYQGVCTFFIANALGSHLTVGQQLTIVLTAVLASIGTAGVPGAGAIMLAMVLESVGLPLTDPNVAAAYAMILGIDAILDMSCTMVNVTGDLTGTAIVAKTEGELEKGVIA
T3 sequence (O59010 whole entry R397C): as the sequence (O59010 whole entry G396S/R397C) above, with S396G counted along it

## CSCC[C@H](N)C(=O)O [L-methionine]
GltPh-G396S/R397C
  Reduction of L-[3H]serine transport by unlabelled competitor (in words): to a similar extent

## N[C@@H](CSCc1ccccc1)C(=O)O
ASCTs
  Affinity for the ASCTs: ~ 1 mM
wild-type GltPh [1]; 100 nM L-[3H]aspartate
  IC50 for inhibition of L-[3H]aspartate transport: ineffective
GltPh-R397C [2]; GltPh-R397C, 1 µM L-[3H]serine
  IC50 for inhibition of L-[3H]serine transport: reduced affinity compared with benzylserine
GltPh-G396S/R397C
  IC50: 280 ± 60 µM
GltPh-R397C [3]
  Kd: 1000 ± 300 µM
GltPh-R397C [3]; GltPh-R397C, global fit of isotherms at 10–100 mM Na+, 25 °C
  Apparent number of Na+ ions coupled to binding (n): 0.8 ± 0.04

## N[C@H](C(=O)O)[C@H](OCc1ccccc1)C(=O)O [TBOA, L-threo-β-oxybenzylaspartic acid]
wild-type GltPh [1]; 100 nM L-[3H]aspartate, read-out: IC50 for inhibition of L-[3H]aspartate transport
  IC50: 2 ± 1 µM
GltPh-R397C [2]; GltPh-R397C, 1 µM L-[3H]serine
  IC50 for inhibition of L-[3H]serine transport: poorly inhibited
GltPh-G396S/R397C; [7]
  IC50: 500 ± 200 µM
Glutamate transporters
  Affinity for the glutamate transporters: ~ 50 μM

## [Na+] [Na+]
wild-type GltPh [4]; ref Reyes et al., 2013, read-out: KD,Na of Na+ binding
  Kd: 99300 µM
wild-type GltPh [4]; ref Reyes et al., 2013
  nNa of Na+ binding: 1.6
GltPh-R397C [3]; GltPh-R397C
  Hill coefficient nNa of Na+ binding in the absence of amino acids: 1.2 and 1.2 ± 0.1
GltPh-R397C [3]; GltPh-R397C, Hill fit, read-out: KD,Na of Na+ binding in the absence of amino acids
  Kd: 38000 µM

## C[C@H](N)C(=O)O [L-alanine]
wild-type GltPh [1]; 1 µM L-[3H]substrate, Na+ gradient, pH 7.5
  Transport of radiolabelled substrate into proteoliposomes (in words): not transported
GltPh-R397C [2]
  EC50: 14 ± 3 µM
GltPh-G396S/R397C
  EC50: 4 ± 0.2 µM

## N[C@@H](CC(=O)O)C(=O)O [L-aspartate]
GltPh-R397C [5]
  Transport of radiolabelled substrate into proteoliposomes (in words): no longer capable of transporting
GltPh-G396S/R397C; GltPh-G396S/R397C, 100 nM L-[3H]aspartate, 1 µM L-[3H]glutamine, Na+ gradient, pH 7.5
  Transport of radiolabelled substrate into proteoliposomes (in words): does not effectively transport

## CC(C)[C@H](N)C(=O)O [L-valine]
GltPh-G396S/R397C
  Reduction of L-[3H]serine transport by unlabelled competitor (in words): to a similar extent

## N[C@@H](COCc1ccccc1)C(=O)O [benzylserine]
ASCTs
  Affinity for the ASCTs: ~ 1 mM
wild-type GltPh [1]; 100 nM L-[3H]aspartate
  IC50 for inhibition of L-[3H]aspartate transport: ineffective
GltPh-R397C [2]; GltPh-R397C, 1 µM L-[3H]serine, read-out: IC50 for inhibition of L-[3H]serine transport
  IC50: 110 ± 10 µM
GltPh-G396S/R397C; [7]
  IC50: 120 ± 20 µM

B1: GltPh-R397C (natural protein, Pyrococcus horikoshii)
chain: MGLYRKYIEYPVLQKILIGLILGAIVGLILGHYGYADAVKTYVKPFGDLFVRLLKMLVMPIVFASLVVGAASISPARLGRVGVKIVVYYLLTSAFAVTLGIIMARLFNPGAGIHLAVGGQQFQPKQAPPLVKILLDIVPTNPFGALANGQVLPTIFFAIILGIAITYLMNSENEKVRKSAETLLDAINGLAEAMYKIVNGVMQYAPIGVFALIAYVMAEQGVKVVGELAKVTAAVYVGLTLQILLVYFVLLKIYGIDPISFIKKAKDAMLTAFVTRSSSGTLPVTMRVAKEMGISEGIYSFTLPLGATINMDGTALYQGVCTFFIANALGSHLTVGQQLTIVLTAVLASIGTAGVPGAGAIMLAMVLESVGLPLTDPNVAAAYAMILGIDAILDMGCTMVNVTGDLTGTAIVAKTEG
notes: GltPh of Pyrococcus horikoshii, wild-type background, with the point mutation R397C; Crystallised with L-cysteine, L-serine or benzylcysteine (5 mM each); source: E. coli Top10, purified (Ni-NTA, thrombin digestion, Superdex 200 SEC in detergent); not shown: His6, N-terminal, cleaved
[6]
  stoichiometry N: 3

B2: wild-type GltPh, aspartate transporter from Pyrococcus horikoshii (natural protein)
chain: B1 chain with C397R
notes: GltPh, Na+-dependent aspartate transporter of the archaeon Pyrococcus horikoshii; wild-type background (not the seven-histidine mutant CAT-7); Crystallised with L-aspartate and Na+ in n-decyl-maltopyranoside; Three protomers in the asymmetric unit (threefold NCS); also called Wt; source: E. coli Top10, purified (Ni-NTA, thrombin digestion, Superdex 200 SEC in detergent); not shown: His6, …
[6]
  binding result: binds
